Source: US10294202B2, “Pyrrolidinones as herbicides” (FMC Corporation, priority 2013, dated 2019)

Legend:
rice = assay: Test B flooded paddy test; assay type: in vivo, Oryza sativa; conditions: Flood, scale of 0 to 100 where 0 is no effect and 100 is complete control
Method in brief: (§1)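 Paddy-water application at a 3 cm flood, young plants having two leaves. Water level maintained; greenhouse, 13–15 days; visual 0–100 control rating.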

barnyardgrass [1] = assay: Test A pre-/postemergence herbicide test; assay type: in vivo, Echinochloa crus-galli
Method in brief: (§2)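 Formulated compound (non-phytotoxic solvent, surfactant) sprayed pre- onto soil of seeded loam/sand pots or post- onto seedlings at 1–2 leaves; ~10 d greenhouse; 0–100 visual control rating versus untreated.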

giant foxtail = assay: Test A pre-/postemergence herbicide test; assay type: in vivo, Setaria faberii
Method in brief: as §2

barnyardgrass [2] = assay: Test B flooded paddy test; assay type: in vivo, Echinochloa crus-galli; conditions: Flood, scale of 0 to 100 where 0 is no effect and 100 is complete control
Method in brief: as §1

velvetleaf = assay: Test A pre-/postemergence herbicide test; assay type: in vivo, Abutilon theophrasti
Method in brief: as §2

sedge, umbrella = assay: Test B flooded paddy test; assay type: in vivo, Cyperus difformis; conditions: Flood, scale of 0 to 100 where 0 is no effect and 100 is complete control
Method in brief: as §1

pigweed = assay: Test A pre-/postemergence herbicide test; assay type: in vivo, Amaranthus retroflexus
Method in brief: as §2

morningglory = assay: Test A pre-/postemergence herbicide test; assay type: in vivo, Ipomoea spp.
Method in brief: as §2

wheat = assay: Test A pre-/postemergence herbicide test; assay type: in vivo, Triticum aestivum
Method in brief: as §2

crabgrass, large = assay: Test A pre-/postemergence herbicide test; assay type: in vivo, Digitaria sanguinalis
Method in brief: as §2

corn = assay: Test A pre-/postemergence herbicide test; assay type: in vivo, Zea mays
Method in brief: as §2

ducksalad = assay: Test B flooded paddy test; assay type: in vivo, Heteranthera limosa; conditions: Flood, scale of 0 to 100 where 0 is no effect and 100 is complete control
Method in brief: as §1

[3] = Postemergence, 125 g ai/ha, 0 to 100 scale, 0 is no effect, 100 is complete control
[4] = Postemergence, 500 g ai/ha, 0 to 100 scale (0 no effect, 100 complete control)
[5] = Preemergence, 125 g ai/ha, 0 to 100 scale where 0 is no effect and 100 is complete control
[6] = preemergence, 500 g ai/ha, 0 to 100 scale, 0 is no effect and 100 is complete control
[7] = Postemergence, 125 g ai/ha, visual rating on 0 to 100 scale (0 no effect, 100 complete control), approx. 10 days
[8] = Postemergence, 1000 g ai/ha, 0 to 100 scale (0 no effect, 100 complete control)
[9] = Preemergence, 1000 g ai/ha, visual rating on 0 to 100 scale (0 no effect, 100 complete control), approx. 10 days

O=C1NCC(c2ccc(OC(F)(F)F)cc2)C1C(=O)Nc1cccc(F)c1F (racemic) [Compound 257]
80: Plant response rating, Barnyardgrass (barnyardgrass [1]; [4]) | Plant response rating, Barnyardgrass (barnyardgrass [1]; [6]) | Plant response rating, Foxtail, Giant (giant foxtail; [3]) | Plant response rating, Foxtail, Giant (giant foxtail; [5])
70: Plant response rating, Ducksalad (ducksalad; 250 g ai/ha)
40: Plant response rating, Barnyardgrass (barnyardgrass [1]; [5])
20: Plant response rating, Wheat (wheat; [3]) | Plant response rating, Corn (corn; [4])
90: Plant response rating, Foxtail, Giant (giant foxtail; [4]) | Plant response rating, Foxtail, Giant (giant foxtail; [6]) | Plant response rating, Crabgrass, Large (crabgrass, large; [3]) | Plant response rating, Crabgrass, Large (crabgrass, large; [4]) | Plant response rating, Crabgrass, Large (crabgrass, large; [5]) | Plant response rating, Crabgrass, Large (crabgrass, large; [6])
0: Plant response rating, Barnyardgrass (barnyardgrass [2]; 250 g ai/ha) | Plant response rating, Velvetleaf (velvetleaf; [3]) | Plant response rating, Velvetleaf (velvetleaf; [4]) | Plant response rating, Velvetleaf (velvetleaf; [5]) | Plant response rating, Velvetleaf (velvetleaf; [6]) | Plant response rating, Sedge, Umbrella (sedge, umbrella; 250 g ai/ha) | Plant response rating, Pigweed (pigweed; [3]) | Plant response rating, Pigweed (pigweed; [4]) | Plant response rating, Pigweed (pigweed; [5]) | Plant response rating, Pigweed (pigweed; [6]) | Plant response rating, Morningglory (morningglory; [3]) | Plant response rating, Morningglory (morningglory; [4]) | Plant response rating, Morningglory (morningglory; [5]) | Plant response rating, Morningglory (morningglory; [6]) | Plant response rating, Wheat (wheat; [5]) | Plant response rating, Wheat (wheat; [6]) | Plant response rating, Corn (corn; [3]) | Plant response rating, Corn (corn; [5]) | Plant response rating, Corn (corn; [6])
30: Plant response rating, Wheat (wheat; [4])
15: Plant response rating, Rice (rice; 250 g ai/ha)
50: Plant response rating, Barnyardgrass (barnyardgrass [1]; [3])

O=C1NCC(c2ccc(C(F)(F)F)cc2F)C1C(=O)Nc1ccccc1F (racemic) [Compound 259]
60: Plant response rating, Foxtail, Giant (giant foxtail; [5])
20: Plant response rating, Barnyardgrass (barnyardgrass [2]; 1000 g ai/ha)
0: Plant response rating, Velvetleaf (velvetleaf; [3]) | Plant response rating, Velvetleaf (velvetleaf; [4]) | Plant response rating, Velvetleaf (velvetleaf; [5]) | Plant response rating, Velvetleaf (velvetleaf; [6]) | Plant response rating, Pigweed (pigweed; [3]) | Plant response rating, Pigweed (pigweed; [4]) | Plant response rating, Pigweed (pigweed; [5]) | Plant response rating, Pigweed (pigweed; [6]) | Plant response rating, Morningglory (morningglory; [3]) | Plant response rating, Morningglory (morningglory; [4]) | Plant response rating, Morningglory (morningglory; [5]) | Plant response rating, Morningglory (morningglory; [6]) | Plant response rating, Wheat (wheat; [3]) | Plant response rating, Wheat (wheat; [4]) | Plant response rating, Wheat (wheat; [5]) | Plant response rating, Wheat (wheat; [6]) | Plant response rating, Corn (corn; [3]) | Plant response rating, Corn (corn; [4]) | Plant response rating, Corn (corn; [5]) | Plant response rating, Corn (corn; [6])
90: Plant response rating, Foxtail, Giant (giant foxtail; [6]) | Plant response rating, Crabgrass, Large (crabgrass, large; [4]) | Plant response rating, Crabgrass, Large (crabgrass, large; [6]) | Plant response rating, Ducksalad (ducksalad; 1000 g ai/ha)
70: Plant response rating, Barnyardgrass (barnyardgrass [1]; [4]) | Plant response rating, Foxtail, Giant (giant foxtail; [4])
50: Plant response rating, Barnyardgrass (barnyardgrass [1]; [3]) | Plant response rating, Foxtail, Giant (giant foxtail; [3])
80: Plant response rating, Barnyardgrass (barnyardgrass [1]; [6]) | Plant response rating, Crabgrass, Large (crabgrass, large; [3])
10: Plant response rating, Rice (rice; 1000 g ai/ha) | Plant response rating, Barnyardgrass (barnyardgrass [1]; [5]) | Plant response rating, Sedge, Umbrella (sedge, umbrella; 1000 g ai/ha)

O=C1NCC(c2ccc(C(F)(F)F)nc2)C1C(=O)Nc1ccccc1C(F)(F)F (racemic) [Compound 264]
100: Plant response rating, Crabgrass, Large (crabgrass, large; [5]) | Plant response rating, Crabgrass, Large (crabgrass, large; [6]) | Plant response rating, Ducksalad (ducksalad; 1000 g ai/ha)
30: Plant response rating, Barnyardgrass (barnyardgrass [1]; [3]) | Plant response rating, Velvetleaf (velvetleaf; [4])
60: Plant response rating, Foxtail, Giant (giant foxtail; [3]) | Plant response rating, Pigweed (pigweed; [4])
90: Plant response rating, Barnyardgrass (barnyardgrass [1]; [6]) | Plant response rating, Foxtail, Giant (giant foxtail; [6]) | Plant response rating, Crabgrass, Large (crabgrass, large; [4])
50: Plant response rating, Barnyardgrass (barnyardgrass [1]; [5]) | Plant response rating, Pigweed (pigweed; [5])
80: Plant response rating, Barnyardgrass (barnyardgrass [1]; [4]) | Plant response rating, Foxtail, Giant (giant foxtail; [4]) | Plant response rating, Foxtail, Giant (giant foxtail; [5]) | Plant response rating, Pigweed (pigweed; [6]) | Plant response rating, Crabgrass, Large (crabgrass, large; [3])
0: Plant response rating, Rice (rice; 1000 g ai/ha) | Plant response rating, Barnyardgrass (barnyardgrass [2]; 1000 g ai/ha) | Plant response rating, Velvetleaf (velvetleaf; [5]) | Plant response rating, Velvetleaf (velvetleaf; [6]) | Plant response rating, Sedge, Umbrella (sedge, umbrella; 1000 g ai/ha) | Plant response rating, Morningglory (morningglory; [4]) | Plant response rating, Morningglory (morningglory; [5]) | Plant response rating, Morningglory (morningglory; [6]) | Plant response rating, Wheat (wheat; [4]) | Plant response rating, Wheat (wheat; [5]) | Plant response rating, Wheat (wheat; [6]) | Plant response rating, Corn (corn; [3]) | Plant response rating, Corn (corn; [4]) | Plant response rating, Corn (corn; [5]) | Plant response rating, Corn (corn; [6])

O=C1NCC(c2ccc(Cl)c(C(F)(F)F)c2)C1C(=O)Nc1cccc(F)c1F (racemic) [Compound 268]
30: Plant response rating, Pigweed (pigweed; [5])
70: Plant response rating, Barnyardgrass (barnyardgrass [1]; [4]) | Plant response rating, Barnyardgrass (barnyardgrass [1]; [5]) | Plant response rating, Foxtail, Giant (giant foxtail; [5]) | Plant response rating, Crabgrass, Large (crabgrass, large; [3])
0: Plant response rating, Barnyardgrass (barnyardgrass [2]; 1000 g ai/ha) | Plant response rating, Velvetleaf (velvetleaf; [5]) | Plant response rating, Velvetleaf (velvetleaf; [6]) | Plant response rating, Sedge, Umbrella (sedge, umbrella; 1000 g ai/ha) | Plant response rating, Morningglory (morningglory; [4]) | Plant response rating, Morningglory (morningglory; [5]) | Plant response rating, Wheat (wheat; [7]) | Plant response rating, Wheat (wheat; [4]) | Plant response rating, Wheat (wheat; [5]) | Plant response rating, Wheat (wheat; [6]) | Plant response rating, Corn (corn; [3]) | Plant response rating, Corn (corn; [5])
50: Plant response rating, Barnyardgrass (barnyardgrass [1]; [3]) | Plant response rating, Pigweed (pigweed; [7])
100: Plant response rating, Ducksalad (ducksalad; 1000 g ai/ha)
40: Plant response rating, Corn (corn; [4])
60: Plant response rating, Pigweed (pigweed; [6]) | Plant response rating, Morningglory (morningglory; [6])
90: Plant response rating, Foxtail, Giant (giant foxtail; [4]) | Plant response rating, Crabgrass, Large (crabgrass, large; [6])
20: Plant response rating, Rice (rice; 1000 g ai/ha) | Plant response rating, Morningglory (morningglory; [7])
80: Plant response rating, Barnyardgrass (barnyardgrass [1]; [6]) | Plant response rating, Foxtail, Giant (giant foxtail; [3]) | Plant response rating, Foxtail, Giant (giant foxtail; [6]) | Plant response rating, Pigweed (pigweed; [4]) | Plant response rating, Crabgrass, Large (crabgrass, large; [4]) | Plant response rating, Crabgrass, Large (crabgrass, large; [5]) | Plant response rating, Corn (corn; [6])

O=C1NCC(c2ccc(Cl)c(C(F)(F)F)c2)C1C(=O)Nc1ccccc1C(F)(F)F (racemic) [Compound 269]
70: Plant response rating, Barnyardgrass (barnyardgrass [1]; [4]) | Plant response rating, Barnyardgrass (barnyardgrass [1]; [5]) | Plant response rating, Foxtail, Giant (giant foxtail; [3]) | Plant response rating, Pigweed (pigweed; [7]) | Plant response rating, Pigweed (pigweed; [6])
90: Plant response rating, Crabgrass, Large (crabgrass, large; [6])
60: Plant response rating, Pigweed (pigweed; [4]) | Plant response rating, Crabgrass, Large (crabgrass, large; [3])
0: Plant response rating, Rice (rice; 1000 g ai/ha) | Plant response rating, Barnyardgrass (barnyardgrass [2]; 1000 g ai/ha) | Plant response rating, Velvetleaf (velvetleaf; [5]) | Plant response rating, Velvetleaf (velvetleaf; [6]) | Plant response rating, Sedge, Umbrella (sedge, umbrella; 1000 g ai/ha) | Plant response rating, Morningglory (morningglory; [7]) | Plant response rating, Morningglory (morningglory; [4]) | Plant response rating, Morningglory (morningglory; [5]) | Plant response rating, Morningglory (morningglory; [6]) | Plant response rating, Wheat (wheat; [7]) | Plant response rating, Wheat (wheat; [4]) | Plant response rating, Wheat (wheat; [5]) | Plant response rating, Wheat (wheat; [6]) | Plant response rating, Corn (corn; [3]) | Plant response rating, Corn (corn; [5]) | Plant response rating, Corn (corn; [6])
80: Plant response rating, Barnyardgrass (barnyardgrass [1]; [6]) | Plant response rating, Foxtail, Giant (giant foxtail; [4]) | Plant response rating, Foxtail, Giant (giant foxtail; [5]) | Plant response rating, Foxtail, Giant (giant foxtail; [6]) | Plant response rating, Crabgrass, Large (crabgrass, large; [4]) | Plant response rating, Crabgrass, Large (crabgrass, large; [5])
20: Plant response rating, Corn (corn; [4])
50: Plant response rating, Barnyardgrass (barnyardgrass [1]; [3]) | Plant response rating, Pigweed (pigweed; [5])
100: Plant response rating, Ducksalad (ducksalad; 1000 g ai/ha)

Cn1ccc(NC(=O)C2C(=O)NCC2c2ccc(F)c(F)c2)n1 (stereo not shown) [Compound 31]
30: Plant response rating, Corn (corn; [8])
60: Plant response rating, Barnyardgrass (barnyardgrass [1]; [8])
50: Plant response rating, Barnyardgrass (barnyardgrass [1]; [9]) | Plant response rating, Wheat (wheat; [9])
80: Plant response rating, Foxtail, Giant (giant foxtail; [9]) | Plant response rating, Crabgrass, Large (crabgrass, large; [9])
20: Plant response rating, Foxtail, Giant (giant foxtail; [8]) | Plant response rating, Crabgrass, Large (crabgrass, large; [8]) | Plant response rating, Corn (corn; [9])
0: Plant response rating, Rice (rice; 250 g ai/ha) | Plant response rating, Barnyardgrass (barnyardgrass [2]; 250 g ai/ha) | Plant response rating, Velvetleaf (velvetleaf; [8]) | Plant response rating, Velvetleaf (velvetleaf; [9]) | Plant response rating, Sedge, Umbrella (sedge, umbrella; 250 g ai/ha) | Plant response rating, Pigweed (pigweed; [8]) | Plant response rating, Pigweed (pigweed; [9]) | Plant response rating, Morningglory (morningglory; [8]) | Plant response rating, Wheat (wheat; [8]) | Plant response rating, Ducksalad (ducksalad; 250 g ai/ha)
